Like-named read-outs stand apart in the source and are kept apart here.
Assays:
flank organ hair = assay: Hamster flank organ hair growth inhibition by topical inhibitor (hair mass, treated organ vs vehicle-treated organ); type: in vivo, male intact Golden Syrian hamsters; details: for Flank Organ Hair Mass, Treated: ± SE; for Hair Growth Inhibition: percent decrease vs vehicle-treated organ
Method: A series of compositions was prepared each containing a given concentration of specified inhibitor in the foregoing vehicle, as listed in Table 1 below.
Four groups (eight animals in each group) of male intact Golden Syrian hamsters were provided. These animals were considered acceptable models for human beard hair growth in that they display oval shaped flank organs, one on each side, each about 8 mm in major diameter, which grow thick black and coarse hair similar to human beard hair. These organs produce hair in response to androgens in the hamster. The flank organs of each hamster were depilated by applying a thioglycolate-based chemical depilatory (Surgex), and to one organ of each animal was applied 10 μL. of vehicle alone once a day, while to the other organ of each animal was applied an equal amount of vehicle containing inhibitor. After 14 such applications (Mon.-Fri.) over a period of 18 days, the flank organs were shaved and the amount of recovered hair (hair mass) from each was weighed. The extent of reduction in hair growth by the inhibitor was expressed as the percent decrease in hair mass on the organ treated with inhibitor as compared to the organ treated with vehicle alone. As a control, one group of eight animals had both flank organs of each animal treated with vehicle alone.
The same procedure was followed as in Example 1 except that the vehicle used for the compositions consisted of water alone.
The same test procedure was followed except that the compositions were applied to the hamster flank organs every day for fifteen successive days, at which time hair mass was measured; the results were as follows: […]

hair growth = details: intact males; Table 3, Group VI vs. Group X; cited from earlier work
sebaceous glands = details: cited from earlier work
sebum excretion = details: topical, cited from earlier work
hamster flank organ = details: topical application; cited from earlier work
[1] = test system: brain 4-aminobutyric acid levels; details: transformation catalyzed by mitochondrial monoamine oxidase; cited from earlier work
[2] = Table 1, 5% of each inhibitor in water/ethanol/glycol vehicle, 10 μL once a day, 14 applications over 18 days
[3] = Table 1, 5% of each inhibitor in water/ethanol/glycol vehicle, 14 applications over 18 days
[4] = Table 3, 5% of each inhibitor, Example 1 vehicle, every day for fifteen successive days

Compound: NCCC[C@](N)(C(=O)O)C(F)F [DFMO, 2-(difluoromethyl)-ornithine]
- Flank Organ Hair Mass, Treated (flank organ hair; [2]): 0.99 ± .08 mg
- Hair Growth Inhibition (flank organ hair; [3]): 64.3 ± 3.7%
- Flank Organ Hair Mass, Treated (flank organ hair; Table 2, 5% inhibitor, vehicle water alone, 14 applications over 18 days): 2.70 ± .22 mg
- Hair Growth Inhibition (flank organ hair; Table 2, 5% inhibitor, vehicle water alone): 18.8 ± 3.7%
- Hair Growth Inhibition (flank organ hair; [4]): 44.4 ± 18.2%
- Flank Organ Hair Mass, Treated (flank organ hair; [4]): 0.49 ± .14 mg

Compound: CCC(=NNC(=N)N)C(CC)=NNC(=N)N [DEGBG, diethylglyoxal bis(guanylhydrazone)]
- Flank Organ Hair Mass, Treated (flank organ hair; Table 2, 2.5% inhibitor, vehicle water alone, 14 applications over 18 days): 2.62 ± .15 mg
- Hair Growth Inhibition (flank organ hair; Table 2, 2.5% inhibitor, vehicle water alone): 15.9 ± 5.2%

Compound: CN(CCON)C[C@H]1O[C@@H](n2cnc3c(N)ncnc32)[C@H](O)[C@@H]1O [MAOEA, 5'-deoxy-5'-[N-methyl-N-(2-[aminooxy]ethyl)] aminoadenosine]
- Flank Organ Hair Mass, Treated (flank organ hair; [2]): 2.03 ± .18 mg
- Hair Growth Inhibition (flank organ hair; [3]): 29.4 ± 5.9%

Compound: CC(C=NNC(=N)N)=NNC(=N)N [MGBG, methylglyoxal bis(guanylhydrazone)]
- Flank Organ Hair Mass, Treated (flank organ hair; [2]): 1.54 ± .22 mg
- Hair Growth Inhibition (flank organ hair; [3]): 40.3 ± 7.4%
- Hair Growth Inhibition (flank organ hair; [4]): 42.3 ± 8.2%
- Flank Organ Hair Mass, Treated (flank organ hair; [4]): 0.56 ± .11 mg

Compound: CC(=O)[C@H]1CC[C@H]2[C@@H]3CCC4=CC(=O)CC[C@]4(C)[C@H]3CC[C@]12C [progesterone]
- effect on inhibition of hair growth (hair growth): doubtful
- effectiveness of progesterone (sebaceous glands; female): effective in the female
- effectiveness of progesterone (sebaceous glands; male): not in the male
- reducing sebum excretion rates (sebum excretion; females): effective in reducing sebum excretion rates in females
- reducing sebum excretion rates (sebum excretion; males): without effect in males

Compound: CCC[C@]1(O)CC[C@H]2[C@@H]3CCC4=CC(=O)CC[C@]4(C)[C@H]3CC[C@@]21C [17β-hydroxy-17α-propylandrost-4-en-3-one]
- reduction in hair growth of the hamster flank organ (hamster flank organ): substantial reduction in hair growth
- size of the flank organ (hamster flank organ): reduction in the size of the flank organ

Compound: C#CC(N)CCCN (stereo not shown) [5-hexyne-1,4-diamine]
- brain 4-aminobutyric acid levels [1]: increases in brain 4-aminobutyric acid levels
